# In article PMC4821887, “Identification of chemicals that mimic transcriptional changes associated with autism, brain aging and neurodegeneration” (Nature Communications, 2016):
# Test system: mouse cortical cultures
# Assay: RNA-seq differential expression (DESeq) against matched vehicle
# Type: cell-based
# Set-up: key to MeanFenamidone Bcl11b / MeanFenamidone Slc12a4 / MeanFenamidone Abca1 / MeanFenamidone Hmox1 / MeanFenamidone Il1rap / MeanFenamidone Cyba / MeanFenamidone Narf / MeanFenamidone Bnip3 / MeanFenamidone Amotl2 / MeanFenamidone Gad2 / MeanFenamidone Vsnl1 / MeanFenamidone Fam178a: DESeq mean of counts over RefSeq exons
# Procedure: Figure 4 Cluster 2 chemicals alter expression of a common set of genes. […] RNA-seq was performed in quadruplicate after treating cortical cultures with fenamidone (10 μM) or pyraclostrobin (0.1 μM) for 24 h (n=3 biological replicates) and compared with matched vehicle controls using DESeq to detect differentially expressed genes, listed in Supplementary Data 4.
# Cultures were treated with the non-cytotoxic dose of each chemical, by exchanging half of the original medium with chemicals at 2 × concentration in prewarmed feeding medium, on DIV 7 for 24 h in 12-well plates at a density of 5 × 10^5 cells per well. RNA was isolated using RNeasy plus mini kit (Cat. #74134, Qiagen). […]. Samples were further assessed for quality using either an Agilent Bioanalyzer 2100 or TapeStation 2200 to obtain a RIN. RIN values exceeding 7 were used for sequencing. RNA samples were used to generate and barcode complementary DNA libraries using the TruSeq RNA Library Preparation Kit at the UNC High Throughput Sequencing Facility. Pools of 24 multiplexed samples were sequenced per lane on an Illumina HiSeq 2500 using 50-bp paired-end reads.
# RNA-seq reads were filtered using TagDust and aligned to the reference mouse genome (mm9) with TopHat using default parameters. Reads aligning to ribosomal RNA genes were removed. Transcript abundance was estimated by computing Reads per kilobase per million mapped reads (RPKM) using RefSeq gene models aggregated by gene symbol. For differential expression analyses, raw counts over RefSeq exons were used, and then were compared across samples using DESeq[62].
smiles,measurement,setting,value
CSC1=N[C@@](C)(c2ccccc2)C(=O)N1Nc1ccccc1 [fenamidone],MeanFenamidone,gene Cad,202.997
same,log2FoldChange,gene Cad,1.187
same,MeanFenamidone,gene Cadps,260.197
same,log2FoldChange,gene Cadps,-1.6246
same,MeanFenamidone Cald1,"gene Cald1, DESeq mean, 4 reps",1843.23
same,log2FoldChange Cald1,"gene Cald1, vs vehicle, 4 reps",1.947
same,MeanFenamidone,gene Calm2,809.868
same,log2FoldChange,gene Calm2,-1.097
same,MeanFenamidone Camk2a,"gene Camk2a, DESeq mean, 4 reps",319.844
same,log2FoldChange Camk2a,"gene Camk2a, vs vehicle, 4 reps",-1.451
same,MeanFenamidone,gene Camk2n1,296.66
same,log2FoldChange,gene Camk2n1,-1.023
same,MeanFenamidone Camk4,"gene Camk4, DESeq mean, 4 reps",490.278
same,log2FoldChange Camk4,"gene Camk4, vs vehicle, 4 reps",-1.593
same,MeanFenamidone Camta1,"gene Camta1, DESeq mean, 4 reps",338.624
same,log2FoldChange Camta1,"gene Camta1, vs vehicle, 4 reps",-1.578
same,MeanFenamidone Caskin2,"gene Caskin2, DESeq mean, 4 reps",130.097
same,log2FoldChange Caskin2,"gene Caskin2, vs vehicle, 4 reps",2.297
same,MeanFenamidone Ccdc141,"gene Ccdc141, DESeq mean, 4 reps",72.7622
same,log2FoldChange Ccdc141,"gene Ccdc141, vs vehicle, 4 reps",2.666
same,MeanFenamidone Ccnd3,"gene Ccnd3, DESeq mean, 4 reps",321.074
same,log2FoldChange Ccnd3,"gene Ccnd3, vs vehicle, 4 reps",1.783
same,MeanFenamidone Ccng1,"gene Ccng1, DESeq mean, 4 reps",4010.45
same,log2FoldChange Ccng1,"gene Ccng1, vs vehicle, 4 reps",1.5262
same,MeanFenamidone Cd63,"gene Cd63, DESeq mean, 4 reps",136.407
same,log2FoldChange Cd63,"gene Cd63, vs vehicle, 4 reps",2.342
same,MeanFenamidone Cd68,"gene Cd68, DESeq mean, 4 reps",127.152
same,log2FoldChange Cd68,"gene Cd68, vs vehicle, 4 reps",2.839
same,MeanFenamidone Cd151,"gene Cd151, DESeq mean, 4 reps",686.042
same,log2FoldChange Cd151,"gene Cd151, vs vehicle, 4 reps",1.998
same,MeanFenamidone Cdc42ep1,"gene Cdc42ep1, DESeq mean, 4 reps",242.014
same,log2FoldChange Cdc42ep1,"gene Cdc42ep1, vs vehicle, 4 reps",2.019
same,MeanFenamidone Cdkl2,"gene Cdkl2, DESeq mean, 4 reps",148.718
same,log2FoldChange Cdkl2,"gene Cdkl2, vs vehicle, 4 reps",-1.498
same,MeanFenamidone Cdkn1a,"gene Cdkn1a, DESeq mean, 4 reps",1626.53
same,log2FoldChange Cdkn1a,"gene Cdkn1a, vs vehicle, 4 reps",1.6849
same,MeanFenamidone,gene Cercam,80.354
same,log2FoldChange,gene Cercam,1.731
same,MeanFenamidone,gene Chga,168.446
same,log2FoldChange,gene Chga,-1.21
same,MeanFenamidone,gene Chl1,1683.83
same,log2FoldChange,gene Chl1,-1.224
same,MeanFenamidone,gene Ckb,1311.75
same,log2FoldChange,gene Ckb,1.6
same,MeanFenamidone,gene Clec7a,31.0423
same,log2FoldChange,gene Clec7a,2.927
same,MeanFenamidone Cln5,"gene Cln5, DESeq mean, 4 reps",194.081
same,log2FoldChange Cln5,"gene Cln5, vs vehicle, 4 reps",2.017
same,MeanFenamidone Cnr1,"gene Cnr1, DESeq mean, 4 reps",426.988
same,log2FoldChange Cnr1,"gene Cnr1, vs vehicle, 4 reps",-1.344
same,MeanFenamidone Col4a5,"gene Col4a5, DESeq mean, 4 reps",502.413
same,log2FoldChange Col4a5,"gene Col4a5, vs vehicle, 4 reps",2.312
same,MeanFenamidone,gene Col4a6,110.458
same,log2FoldChange,gene Col4a6,2.156
same,MeanFenamidone Col12a1,"gene Col12a1, DESeq mean, 4 reps",444.559
same,log2FoldChange Col12a1,"gene Col12a1, vs vehicle, 4 reps",2.385
same,MeanFenamidone Cpeb1,"gene Cpeb1, DESeq mean, 4 reps",116.043
same,log2FoldChange Cpeb1,"gene Cpeb1, vs vehicle, 4 reps",2.171
same,MeanFenamidone Csf1,"gene Csf1, DESeq mean, 4 reps",1349.7
same,log2FoldChange Csf1,"gene Csf1, vs vehicle, 4 reps",2.395
same,MeanFenamidone Csrnp3,"gene Csrnp3, DESeq mean, 4 reps",419.96
same,log2FoldChange Csrnp3,"gene Csrnp3, vs vehicle, 4 reps",-1.31
same,MeanFenamidone Ctnna1,"gene Ctnna1, DESeq mean, 4 reps",850.825
same,log2FoldChange Ctnna1,"gene Ctnna1, vs vehicle, 4 reps",1.929
same,MeanFenamidone Ctsd,"gene Ctsd, DESeq mean, 4 reps",3727.98
same,log2FoldChange Ctsd,"gene Ctsd, vs vehicle, 4 reps",1.609
same,MeanFenamidone Ctsl,"gene Ctsl, DESeq mean, 4 reps",1179.87
same,log2FoldChange Ctsl,"gene Ctsl, vs vehicle, 4 reps",1.543
same,MeanFenamidone Cyba,"gene Cyba, DESeq mean, 4 reps",37.6864
same,log2FoldChange Cyba,"gene Cyba, vs vehicle, 4 reps",3.26
same,MeanFenamidone Cyr61,"gene Cyr61, DESeq mean, 4 reps",1421.12
same,log2FoldChange Cyr61,"gene Cyr61, vs vehicle, 4 reps",2.66
same,MeanFenamidone D130043K22Rik,"gene D130043K22Rik, DESeq mean, 4 reps",33.8314
same,log2FoldChange D130043K22Rik,"gene D130043K22Rik, vs vehicle, 4 reps",-1.82
same,MeanFenamidone Daam2,"gene Daam2, DESeq mean, 4 reps",263.262
same,log2FoldChange Daam2,"gene Daam2, vs vehicle, 4 reps",1.9757
same,MeanFenamidone,gene Darc,104.469
same,log2FoldChange,gene Darc,-1.472
